Literature values as cited in patent publication US20250213501A1, “IMPROVING SEMEN QUALITY” (CEUTICS HEALTH GMBH, priority 2022, published 2025).

Assays:
[1] = daily intake of 12 mg of spermidine provided in a plant extract (e.g., wheat germ extract)

For `NCCCCNCCCN` [spermidine], the “NOAEL for a 70 kg person” value (70 kg person) is given as 470 mg/day, the “NOAEL (No Observed Adverse Effect Level)” value (Til et al., Food and Chemical Toxicology 1997) is given as 83 mg/kg body weight/day and the “safety of daily intake” value [1] is given as “safe”.
